In patent publication US10179782B2, “Substituted sulfonamide compounds” (Genentech, Inc., priority 2016, dated 2019):

Target: T1, human TRPA1 (Homo sapiens, UniProt O75762)
T1 construct: expressed in transfected cells; host or cells: CHO cells
Test: TRPA1 FLIPR Tetra calcium influx assay in CHO cells (block of cinnamaldehyde-induced calcium influx)
Type: cell-based
Conditions: Table 2; CHO cells expressing TRPA1; agonist cinnamaldehyde 75 uM; 20 min compound incubation; Hill coefficient fixed to 1.5; read-out: hTRPA1 CHO Ca2+ AUC EVO (IC50)
Outline: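 CHO cells expressing TRPA1 were loaded with calcium dye in HBSS/20 mM HEPES, pH 7.4, 0.02% BSA, then given compound for 20 min at room temperature before ~EC80 cinnamaldehyde (75 µM human, 45 µM rat). Block of calcium influx was read on FLIPR Tetra; IC50 fitted with Hill coefficient fixed at 1.5.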

T1 sequence (O75762 whole entry): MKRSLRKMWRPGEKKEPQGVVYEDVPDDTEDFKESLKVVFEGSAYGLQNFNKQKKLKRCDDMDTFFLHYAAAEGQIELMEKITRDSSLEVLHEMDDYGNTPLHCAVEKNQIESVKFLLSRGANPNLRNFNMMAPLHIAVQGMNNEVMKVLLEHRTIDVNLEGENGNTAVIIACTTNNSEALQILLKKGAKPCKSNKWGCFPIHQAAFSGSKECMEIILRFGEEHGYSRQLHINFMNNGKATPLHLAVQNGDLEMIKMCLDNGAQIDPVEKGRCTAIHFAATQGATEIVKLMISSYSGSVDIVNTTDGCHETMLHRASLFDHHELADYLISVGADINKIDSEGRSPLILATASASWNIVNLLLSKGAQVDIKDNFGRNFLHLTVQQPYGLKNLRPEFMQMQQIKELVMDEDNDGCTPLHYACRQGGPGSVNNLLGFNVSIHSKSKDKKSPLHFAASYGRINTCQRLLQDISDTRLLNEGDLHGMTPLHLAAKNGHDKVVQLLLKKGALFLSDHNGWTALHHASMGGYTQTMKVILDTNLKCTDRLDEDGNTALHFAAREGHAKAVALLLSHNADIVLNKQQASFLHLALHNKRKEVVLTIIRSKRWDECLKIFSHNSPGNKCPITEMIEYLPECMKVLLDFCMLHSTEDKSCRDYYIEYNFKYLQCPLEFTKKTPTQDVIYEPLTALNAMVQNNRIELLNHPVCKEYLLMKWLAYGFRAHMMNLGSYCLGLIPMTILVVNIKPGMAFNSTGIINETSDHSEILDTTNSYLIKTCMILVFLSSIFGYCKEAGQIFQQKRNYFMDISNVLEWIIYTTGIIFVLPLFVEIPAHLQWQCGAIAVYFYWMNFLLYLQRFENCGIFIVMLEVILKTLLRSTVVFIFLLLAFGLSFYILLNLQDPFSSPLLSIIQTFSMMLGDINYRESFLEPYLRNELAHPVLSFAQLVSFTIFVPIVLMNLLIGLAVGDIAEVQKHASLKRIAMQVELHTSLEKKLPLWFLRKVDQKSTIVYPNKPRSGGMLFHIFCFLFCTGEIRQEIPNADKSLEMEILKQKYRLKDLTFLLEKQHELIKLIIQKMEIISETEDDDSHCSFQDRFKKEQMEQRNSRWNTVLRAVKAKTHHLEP

IC50 [nM]	Structure (SMILES)
124	C[C@H]1[C@H](F)C[C@@H](C(=O)NCc2cc(-c3cnc(C(F)(F)F)nc3)c(C#N)cn2)N1S(=O)(=O)c1ccc(F)cc1 [Example 86, (2S,4R,5S)-N-[[5-cyano-4-[2-(trifluoromethyl)pyrimidin-5-yl]-2-pyridyl]methyl]-4-fluoro-1-(4-fluorophenyl)sulfonyl-5-methyl-pyrrolidine-2-carboxamide]
184	C[C@H]1[C@H](F)C[C@@H](C(=O)NCc2cc(-c3cnc(C(F)(F)F)cn3)ncn2)N1S(=O)(=O)c1ccc(F)cc1 [Example 87, (2S,4R,5S)-4-fluoro-1-(4-fluorophenyl)sulfonyl-5-methyl-N-[[6-[5-(trifluoromethyl)pyrazin-2-yl]pyrimidin-4-yl]methyl]pyrrolidine-2-carboxamide]
42.3	C[C@H]1[C@H](F)C[C@@H](C(=O)NCc2cc(C3CCN(CC(F)(F)F)CC3)ncc2F)N1S(=O)(=O)c1ccc(F)cc1 [Example 88, (2S,4R,5S)-4-fluoro-1-(4-fluorophenyl)sulfonyl-N-[[5-fluoro-2-[1-(2,2,2-trifluoroethyl)-4-piperidyl]-4-pyridyl]methyl]-5-methyl-pyrrolidine-2-carboxamide]
7.08	C[C@H]1[C@H](F)C[C@@H](C(=O)NCc2cc(-c3cnc(C(F)(F)F)nc3)ncc2F)N1S(=O)(=O)c1ccc(Br)cc1 [Example 89, (2S,4R,5S)-1-(4-bromophenyl)sulfonyl-4-fluoro-N-[[5-fluoro-2-[2-(trifluoromethyl)pyrimidin-5-yl]-4-pyridyl]methyl]-5-methyl-pyrrolidine-2-carboxamide]
2.5	C[C@H]1[C@H](F)C[C@@H](C(=O)NCc2cc(-c3cnc(C(F)(F)F)nc3)ncc2F)N1S(=O)(=O)c1ccc(Cl)cc1 [Example 90]
5.38	C[C@H]1[C@H](F)C[C@@H](C(=O)NCc2cc(-c3cnc(C(F)(F)F)s3)ncc2F)N1S(=O)(=O)c1ccc(F)cc1 [Example 93, (2S,4R,5S)-4-fluoro-1-(4-fluorophenyl)sulfonyl-N-[[5-fluoro-2-[2-(trifluoromethyl)thiazol-5-yl]-4-pyridyl]methyl]-5-methyl-pyrrolidine-2-carboxamide]
5.52	C[C@H]1[C@H](F)C[C@@H](C(=O)NCc2cc(C3CCN(CC(F)(F)C(F)(F)F)CC3)ncc2F)N1S(=O)(=O)c1ccc(F)cc1 [Example 94, (2S,4R,5S)-4-fluoro-N-[[5-fluoro-2-[1-(2,2,3,3,3-pentafluoropropyl)-4-piperidyl]-4-pyridyl]methyl]-1-(4-fluorophenyl)sulfonyl-5-methyl-pyrrolidine-2-carboxamide]
1.49	C[C@H]1[C@H](F)C[C@@H](C(=O)NCc2cc(-c3cnc(C(F)(F)F)nc3)ncc2F)N1S(=O)(=O)c1cc2ccccc2o1 [Example 95, (2S,4R,5S)-1-(benzofuran-2-ylsulfonyl)-4-fluoro-N-[[5-fluoro-2-[2-(trifluoromethyl)pyrimidin-5-yl]-4-pyridyl]methyl]-5-methyl-pyrrolidine-2-carboxamide]
22.5	C[C@H]1[C@H](F)C[C@@H](C(=O)NCc2cc(-c3ncc(C(F)(F)F)s3)c(F)cn2)N1S(=O)(=O)c1ccc(F)cc1 [Example 96, (2S,4R,5S)-4-fluoro-1-(4-fluorophenyl)sulfonyl-N-[[5-fluoro-4-[5-(trifluoromethyl)thiazol-2-yl]-2-pyridyl]methyl]-5-methyl-pyrrolidine-2-carboxamide]
6.06	C[C@H]1[C@H](F)C[C@@H](C(=O)NCc2cc(-c3cnc(C(F)(F)F)nc3)cc(F)c2F)N1S(=O)(=O)c1ccc(F)cc1 [Example 97, (2S,4R,5S)-N-[[2-1,3-difluoro-5-[2-(trifluoromethyl)pyrimidin-5-yl]phenyl]methyl]-4-fluoro-1-(4-fluorophenyl)sulfonyl-5-methyl-pyrrolidine-2-carboxamide]
